Measured values from PubChem BioAssay AID1963433 (Molecular Pharmacology Branch, DTP, NCI, 2024).

System: 772245-204-R-J1-PDC complex spheroid growth
Experiment: Anticancer human tumor 772245-204-R-J1-PDC patient-derived rhabdomyosarcoma cell line growth inhibition [Asc]
Settings: for IC50: curve of first compound; for viability, T/C: stronger effect = lower value
How it was run: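 Tumor cells were grown as complex spheroids with human endothelial cells (HUVEC) and human mesenchymal stem cells as stroma. Agents were tested alone and in combination, in half-log steps down from the clinical Cmax, or from 10 microM where Cmax was unknown.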

[1] = second compound 0.1 µM, first compound 0.0316 µM
[2] = second compound 0.1 µM, first compound 0.1 µM
[3] = second compound 0.1 µM, first compound 0.316 µM
[4] = second compound 0.1 µM, first compound 1 µM
[5] = second compound 0.1 µM, first compound 3.16 µM
[6] = second compound 0.1 µM, first compound 10 µM
[7] = second compound 0.316 µM, first compound 0.0316 µM
[8] = second compound 0.316 µM, first compound 0.1 µM
[9] = second compound 0.316 µM, first compound 0.316 µM
[10] = second compound 0.316 µM, first compound 1 µM
[11] = second compound 0.316 µM, first compound 3.16 µM
[12] = second compound 0.316 µM, first compound 10 µM
[13] = second compound 1 µM, first compound 0.0316 µM
[14] = second compound 1 µM, first compound 0.1 µM
[15] = second compound 1 µM, first compound 0.316 µM
[16] = second compound 1 µM, first compound 1 µM
[17] = second compound 1 µM, first compound 3.16 µM
[18] = second compound 1 µM, first compound 10 µM
[19] = second compound 0.01 µM, first compound 0.0316 µM
[20] = second compound 0.01 µM, first compound 0.1 µM
[21] = second compound 0.01 µM, first compound 0.316 µM
[22] = second compound 0.01 µM, first compound 1 µM
[23] = second compound 0.01 µM, first compound 3.16 µM
[24] = second compound 0.01 µM, first compound 10 µM
[25] = second compound 0.0316 µM, first compound 0.0316 µM
[26] = second compound 0.0316 µM, first compound 0.1 µM
[27] = second compound 0.0316 µM, first compound 0.316 µM
[28] = second compound 0.0316 µM, first compound 1 µM
[29] = second compound 0.0316 µM, first compound 3.16 µM
[30] = second compound 0.0316 µM, first compound 10 µM
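Also: compound exposure lasted seven days.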
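For viability, T/C in this document: 100% = DMSO vehicle control viability.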

Work on `O=C(c1cc(Cc2n[nH]c(=O)c3ccccc23)ccc1F)N1CCN(C(=O)C2CC2)CC1` + Cc1c(S(C)(=O)=O)c(-c2cc(F)cc(N3CCN(c4ccc(NS(=O)(=O)c5ccc(NC(CCN6CCC(C(=O)OCCCP(=O)(O)O)CC6)CSc6ccccc6)c(S(=O)(=O)C(F)(F)F)c5)cc4)CC3)c2)c(-c2ccc(Cl)cc2)n1C(C)C yielded an IC50 (second compound 0.1 µM) of 3.27 µM, an IC50 (second compound 0.316 µM) of 0.435 µM and an IC50 (second compound 1 µM) of 0.0445 µM. For the same compound, the IC50 (second compound 3.16 µM) was less than 0.0316 µM, the IC50 (second compound 10 µM) was less than 0.0316 µM and the viability, T/C [1] was 76.8%. The viability, T/C [2] was 81.5%, the viability, T/C [3] was 83.2% and the viability, T/C [4] was 63.6%. For the same compound, the viability, T/C [5] was 52.7%, the viability, T/C [6] was 34.3% and the viability, T/C [7] was 62.8%. The viability, T/C [8] was 50.5%, the viability, T/C [9] was 44.2% and the viability, T/C [10] was 54.5%. It also gave a viability, T/C [11] of 28.5%, a viability, T/C [12] of 10.6% and a viability, T/C [13] of 52.1%. The viability, T/C [14] was 46.8%, the viability, T/C [15] was 46.9% and the viability, T/C [16] was 30.7%. The viability, T/C [17] was 12.8%, the viability, T/C [18] was 6.31% and the viability, T/C (second compound 3.16 µM, first compound 0.0316 µM) was 26.3%. For the same compound, the viability, T/C (second compound 3.16 µM, first compound 0.1 µM) was 36.3%, the viability, T/C (second compound 3.16 µM, first compound 0.316 µM) was 33.9% and the viability, T/C (second compound 3.16 µM, first compound 1 µM) was 22%. It also gave a viability, T/C (second compound 3.16 µM, first compound 3.16 µM) of 6.64%, a viability, T/C (second compound 3.16 µM, first compound 10 µM) of 2.64% and a viability, T/C (second compound 10 µM, first compound 0.0316 µM) of 34.8%. It also gave a viability, T/C (second compound 10 µM, first compound 0.1 µM) of 47.2%, a viability, T/C (second compound 10 µM, first compound 0.316 µM) of 33.8% and a viability, T/C (second compound 10 µM, first compound 1 µM) of 17.4%. The viability, T/C (second compound 10 µM, first compound 3.16 µM) was 13.3% and the viability, T/C (second compound 10 µM, first compound 10 µM) was 6.24%.
`CCN1C(C(=O)NC23CCC(C(=O)O)(CC2)CC3)C(c2cccc(Cl)c2F)C2(C(=O)Nc3cc(Cl)ccc32)C12CCCCC2` (stereo not given) + Cc1c(S(C)(=O)=O)c(-c2cc(F)cc(N3CCN(c4ccc(NS(=O)(=O)c5ccc(NC(CCN6CCC(C(=O)OCCCP(=O)(O)O)CC6)CSc6ccccc6)c(S(=O)(=O)C(F)(F)F)c5)cc4)CC3)c2)c(-c2ccc(Cl)cc2)n1C(C)C showed an IC50 (second compound 0.1 µM) of 1.3 µM, an IC50 (second compound 0.316 µM) of 0.405 µM and an IC50 (second compound 1 µM) of 0.0258 µM. It also gave an IC50 (second compound 3.16 µM) of less than 0.00949 µM, an IC50 (second compound 10 µM) of less than 0.00949 µM and a viability, T/C (second compound 0.1 µM, first compound 0.00949 µM) of 80%. It also gave a viability, T/C (second compound 0.1 µM, first compound 0.03 µM) of 84.5%, a viability, T/C (second compound 0.1 µM, first compound 0.0949 µM) of 71.5% and a viability, T/C (second compound 0.1 µM, first compound 0.3 µM) of 78.3%. It also gave a viability, T/C (second compound 0.1 µM, first compound 0.949 µM) of 57.6%, a viability, T/C (second compound 0.1 µM, first compound 3 µM) of 29.6% and a viability, T/C (second compound 0.316 µM, first compound 0.00949 µM) of 57.2%. For the same compound, the viability, T/C (second compound 0.316 µM, first compound 0.03 µM) was 65.5%, the viability, T/C (second compound 0.316 µM, first compound 0.0949 µM) was 67.2% and the viability, T/C (second compound 0.316 µM, first compound 0.3 µM) was 51.9%. It also gave a viability, T/C (second compound 0.316 µM, first compound 0.949 µM) of 36.6%, a viability, T/C (second compound 0.316 µM, first compound 3 µM) of 13.4% and a viability, T/C (second compound 1 µM, first compound 0.00949 µM) of 58.8%. It also gave a viability, T/C (second compound 1 µM, first compound 0.03 µM) of 49.2%, a viability, T/C (second compound 1 µM, first compound 0.0949 µM) of 38% and a viability, T/C (second compound 1 µM, first compound 0.3 µM) of 29.3%. The viability, T/C (second compound 1 µM, first compound 0.949 µM) was 25.9%, the viability, T/C (second compound 1 µM, first compound 3 µM) was 15% and the viability, T/C (second compound 3.16 µM, first compound 0.00949 µM) was 32.1%. It also gave a viability, T/C (second compound 3.16 µM, first compound 0.03 µM) of 42%, a viability, T/C (second compound 3.16 µM, first compound 0.0949 µM) of 35.3% and a viability, T/C (second compound 3.16 µM, first compound 0.3 µM) of 21.6%. The viability, T/C (second compound 3.16 µM, first compound 0.949 µM) was 17.2%, the viability, T/C (second compound 3.16 µM, first compound 3 µM) was 9.63% and the viability, T/C (second compound 10 µM, first compound 0.00949 µM) was 46.4%. The viability, T/C (second compound 10 µM, first compound 0.03 µM) was 48.7%, the viability, T/C (second compound 10 µM, first compound 0.0949 µM) was 38.3% and the viability, T/C (second compound 10 µM, first compound 0.3 µM) was 35.2%. The viability, T/C (second compound 10 µM, first compound 0.949 µM) was 22.1% and the viability, T/C (second compound 10 µM, first compound 3 µM) was 4.04%.
`C=CC(=O)N1CCN(c2nc(=O)n(-c3c(C)ccnc3C(C)C)c3nc(-c4c(O)cccc4F)c(F)cc23)C(C)C1` (stereo not given) + CNC(C)C(=O)NC1CN(S(=O)(=O)c2cccc(S(=O)(=O)N3CCC4CCC(C(=O)NC(c5ccccc5)c5ccccc5)N4C(=O)C(NC(=O)C(C)NC)C3)c2)CCC2CCC(C(=O)NC(c3ccccc3)c3ccccc3)N2C1=O gave an IC50 (second compound 0.01 µM) greater than 10 µM, an IC50 (second compound 0.0316 µM) greater than 10 µM and an IC50 (second compound 0.1 µM) greater than 10 µM. The IC50 (second compound 0.316 µM) was greater than 10 µM, the IC50 (second compound 1 µM) was greater than 10 µM and the viability, T/C [19] was 98.5%. The viability, T/C [20] was 84.7%, the viability, T/C [21] was 91.6% and the viability, T/C [22] was 100%. For the same compound, the viability, T/C [23] was 92%, the viability, T/C [24] was 89% and the viability, T/C [25] was 94.4%. The viability, T/C [26] was 93.6%, the viability, T/C [27] was 101% and the viability, T/C [28] was 92.7%. For the same compound, the viability, T/C [29] was 101%, the viability, T/C [30] was 90.6% and the viability, T/C [1] was 92%. For the same compound, the viability, T/C [2] was 88.9%, the viability, T/C [3] was 108% and the viability, T/C [4] was 97.2%. For the same compound, the viability, T/C [5] was 88.8%, the viability, T/C [6] was 92.2% and the viability, T/C [7] was 94.5%. It also gave a viability, T/C [8] of 95.5%, a viability, T/C [9] of 97.6% and a viability, T/C [10] of 103%. For the same compound, the viability, T/C [11] was 95.7%, the viability, T/C [12] was 80.1% and the viability, T/C [13] was 106%. It also gave a viability, T/C [14] of 94.3%, a viability, T/C [15] of 101% and a viability, T/C [16] of 97.2%. The viability, T/C [17] was 88.9% and the viability, T/C [18] was 95%.
Compound `C=C(F)C(=O)N1CCN(c2nc(OCC3CCCN3C)nc3c2CCN(c2cccc4cccc(Cl)c24)C3)CC1CC#N` (stereo not given) + CNC(C)C(=O)NC1CN(S(=O)(=O)c2cccc(S(=O)(=O)N3CCC4CCC(C(=O)NC(c5ccccc5)c5ccccc5)N4C(=O)C(NC(=O)C(C)NC)C3)c2)CCC2CCC(C(=O)NC(c3ccccc3)c3ccccc3)N2C1=O has an IC50 (second compound 0.01 µM) of 5.51 µM, an IC50 (second compound 0.0316 µM) of 6.3 µM and an IC50 (second compound 0.1 µM) of 4.84 µM. The IC50 (second compound 0.316 µM) was 4.88 µM, the IC50 (second compound 1 µM) was 4.84 µM and the viability, T/C [19] was 98.8%. The viability, T/C [20] was 102%, the viability, T/C [21] was 91.3% and the viability, T/C [22] was 108%. It also gave a viability, T/C [23] of 87.2%, a viability, T/C [24] of 9.53% and a viability, T/C [25] of 112%. The viability, T/C [26] was 105%, the viability, T/C [27] was 97.5% and the viability, T/C [28] was 99.7%. For the same compound, the viability, T/C [29] was 97.6%, the viability, T/C [30] was 18% and the viability, T/C [1] was 100%. For the same compound, the viability, T/C [2] was 91.1%, the viability, T/C [3] was 95% and the viability, T/C [4] was 94.4%. The viability, T/C [5] was 79.2%, the viability, T/C [6] was 0.25% and the viability, T/C [7] was 98%. It also gave a viability, T/C [8] of 94.1%, a viability, T/C [9] of 84.4% and a viability, T/C [10] of 105%. For the same compound, the viability, T/C [11] was 80.2%, the viability, T/C [12] was 0.26% and the viability, T/C [13] was 93.5%. For the same compound, the viability, T/C [14] was 106%, the viability, T/C [15] was 87.1% and the viability, T/C [16] was 82.9%. It also gave a viability, T/C [17] of 81.4% and a viability, T/C [18] of 0.98%.
